Data taken from a melting point compilation (Tetko et al.; mined from patent text by program, amines drawn as free bases though some values may be those of a salt).

| Compound | melting point [°C] |
| --- | --- |
| CCOC(=O)/C=C(C)/C=C/C=C(\C)C1=Cc2cc(C)cc(C)c2OC1 | 122 |
| CCCCc1nn(-c2cc(NC(=O)CC)ccc2C(F)(F)F)c(=O)n1Cc1ccc(-c2ccccc2S(=O)(=O)NC(=O)c2ccccc2Cl)cc1F | 181 to 183 |
| COc1ccc(C(=O)N2CCC[C@H]2C(OC)OC)cc1 | 51 to 52.5 |
| OCc1ccc(OCCF)cc1 | 37.3 to 38 |
| Nc1ccc(OCC(=O)OCCO)cc1 | 104 to 106 |
| CS(=O)(=O)NC1CCN(c2nc(N)nc(-c3cc(Cl)ccc3Cl)n2)C1 (stereo unspecified) | 102 to 107 |
| C=CCc1c(O)cc(OC)cc1C(=O)O | 120 to 122 |
| CC(C)CCOc1ccc([N+](=O)[O-])cc1OCCC(C)C | 44 to 47 |
| CC(C)(C)OC(=O)NC1CCN(c2ccc(C(N)=O)cc2)CC1 | > 270 |
| CC12CCC(C(=O)O)=CC1=CCC1C2CCC2(C)C(C(=O)CCC3CCCCC3)CCC12 (stereo unspecified) | 247 |
| Cc1nc(N)n(N)c(=O)c1CCO | 126 to 135 |
| CC(C)(C)[Si](C)(C)OC1C(=O)N(S(=O)(=O)c2ccc(N3CCCCCC3)cc2)CC1O (stereo unspecified) | 121 |
| NSc1nc(-c2ccccc2Cl)ns1 | 143 to 145 |
| CSc1c(C=C(C#N)S(C)(=O)=O)c2ccccc2n1Cc1ccccc1 | 125 to 126 |
| CCOC(=O)Cc1sc(Sc2cccc(C(=O)O)n2)nc1C | 123 to 125 |
| OCc1ncc(-c2cccs2)s1 | 67 to 68 |
| CCOC(=O)/C=C/c1nc(COc2ccc(CO)cc2OC)c(C)o1 | 96 to 97 |
| CCOP(=O)(CC(=O)Nc1c(C(C)C)cccc1C(C)C)OCC | 119 to 120 |
| CC(C)(C)c1cc(CCc2ccccc2NC(=O)NC2CCN(Cc3ccncc3)CC2)cc(C(C)(C)C)c1O | 156 to 158 |
| O=C1Nc2ccc(Cl)cc2N2CCNCC12 (stereo unspecified) | 300 to 303 |
| CC(=O)OC(c1cccnc1)c1c(O)c(=O)ccn1C (stereo unspecified) | 153 to 154 |
| COC(=O)Cc1sc(SCc2cc(O)nc(C)n2)nc1C | 130 to 132 |

| Compound | melting point [°C] |
| --- | --- |
| CCOC(=O)C1=COc2cc(C(C)=O)ccc2O1 | 122 |
| O=C(O)c1c(Br)c(Br)cc2c1OCCO2 | 212 |
| CCCN1CCC23c4cccc(O)c4OC2C2CCC3(C1)C(CSC)C2 (stereo unspecified) | 152 to 153 |
| N#CCCC(=O)c1ccccc1 | 69 |
| COc1nc2cc(Cl)c(Cl)c(N(CC(=O)O)S(C)(=O)=O)c2nc1OC | 203 to 206 |
| CC(C)CC1(C(CCN2C(=O)c3cccc([N+](=O)[O-])c3C2=O)C(=O)NO)CCN(CCc2ccccc2)C1=O (stereo unspecified) | 136 to 138 |
| NC(=NCC(F)(F)F)Nc1ccnc(OCCCc2ccccn2)n1 | 118 to 120 |
| O=C(Nc1ccccc1)NC1CCCCC1 | 164 |
| O=C(OCCN1CCNC1=O)c1ccccc1 | 130 to 132 |
| COC(=O)c1ccccc1CS(=O)(=O)NC(=S)Nc1nc(OC)cc(OC)n1 | 167 to 168 |
| ClC1=NC(Cl)(Cl)N=C1Cl | 85 to 87 |
| Cn1c(NC2CCNC(Cc3ccccc3)C2)nc2ccccc21 (stereo unspecified) | 86.3 |
| O=C1C=CC2(C=C1)N=C(N1CCN(Cc3cccc(C(F)(F)F)c3)CC1)C=C2c1ccccc1 | 135 |
| CCc1cc2c(o1)S(=O)(=O)NC2=O | 133 |
| NC(=NO)C1CCc2ccccc2CC1 | 219 |
| C=CCN1CCNC(=O)c2cccc([N+](=O)[O-])c21 | 80 to 82 |
| Nc1nc2cc(Cl)c(Cl)c(Cl)c2[nH]1 | 255 to 258 |
| CC(C)(C)OC(=O)N1CC(CCl)c2c1cc(O)c1ncccc21 (stereo unspecified) | 148 to 149 |
| CCOC(=O)c1c(C(F)(F)F)nn(C)c1N | 120 to 121 |
| Clc1ccc2c(c1)CCC(c1ccccc1)S2 (stereo unspecified) | 91 to 93 |
| O=C(Nc1ccc(C(=O)N2Cc3cccn3-c3ccccc32)cc1)c1cccc(Cl)c1Cl | 230 to 240 |
| Oc1ccccc1Oc1ncc(Cl)cn1 | 131 to 139 |

| Compound | melting point [°C] |
| --- | --- |
| CCC/C=C/[C@H]1CC[C@H](c2ccc(C(C)=O)cc2)CC1 | 51.2 |
| Cc1coc2c1C(C)(O)C1=C(CCCC1C)C2=O (stereo unspecified) | 139 to 141 |
| O=[N+]([O-])c1ccc(-c2ccc([N+](=O)[O-])cc2C(F)(F)F)c(C(F)(F)F)c1 | 140 |
| Cn1nc(-c2cnc3[nH]cc(C(=O)NC4CCS(=O)(=O)C4)c3n2)c2ccc(Cl)cc21 (stereo unspecified) | 383 to 385 |
| CS(=O)(=O)Nc1ccc(C=O)cc1F | 151 |
| NC(=O)NCCNc1ccc(N)cc1Cl | 160 |
| CN1CCN(c2ccc(C#N)nn2)CC1 | 149 |
| CCOC(=O)C=Cc1cc([N+](=O)[O-])cc2c1CCCC2 | 95 to 96 |
| Clc1ccc2nc(CN3CCN(c4ccccc4Cl)CC3)cn2c1 | 123 to 124 |
| COc1n[nH]c(=O)n1O | 211 |
| Cc1c(CCBr)c2cccc3c2n1CCS3 | 94 |
| O=C(CCCl)c1ccc2c(c1)Cc1cc(C(=O)CCCl)ccc1S2 | 105 to 107 |
| Cc1cccc2sc(=NC(=O)C(F)(F)F)n(N)c12 | 160 to 161 |
| Cc1nc(-c2ccccc2)c(CBr)o1 | 75 to 76 |
| CCCCCCCCOc1ccc(CCC(N)(CO)CCC)cc1 (stereo unspecified) | 43 to 47 |
| CC(=O)Nc1cc(C)c(O)cc1C | 183 |
| CCOC(=O)COc1ccc2c(c1)CC(CNC(=O)OC(C)(C)C)C2 (stereo unspecified) | 56 to 63 |
| CSc1ccc(C(=O)C(C#N)C(=O)C(C)(C)C)c(Cl)c1 (stereo unspecified) | 97 to 99 |
| O=[N+]([O-])c1ccc(N2CC(O)C2)c(F)c1 | 130 to 132 |
| CCOC(=O)c1cnn(C)c1S(N)(=O)=O | 102 to 104 |

The next lines start with the values.

| melting point [°C] | Compound |
| --- | --- |
| 223 to 240 | Cc1cc2cc(Nc3ccnc4cc(-c5ccc(C=O)cc5)sc34)ccc2[nH]1 |
| 263 to 264 | CN1CCN(c2ccc(NC(=O)c3cc4ccccc4s3)cc2C#N)CC1 |
| 92 | COC(=O)c1ccc(C#CCc2cccc3c2SCCC3(C)C)cc1 |
| 118 to 119 | COc1cc(CCC(=O)O)ccc1OCCCc1cn(-c2ccc(C(F)(F)F)cn2)nc1C(C)C |
| 115 to 117 | CN1CCC(c2c[nH]c3ccc(NC(=N)c4cccs4)cc23)C(F)C1 (stereo unspecified) |
| 254 to 260 | Cc1cccc(-c2c[nH]c(=O)c(C#N)c2)c1 |
| 120 to 124 | Cc1cc(F)ccc1-c1nc(NCCO)nc2c1ccc(=O)n2-c1ccccc1F |
| 85 to 87 | COc1ccc2cc(C(=O)C(C)OS(=O)(=O)c3ccc(C)cc3)ccc2c1 (stereo unspecified) |
| 213 to 214 | CC1Nc2cc(N(C)C(=O)c3ccc(-c4ccccc4)cc3)ccc2N1C (stereo unspecified) |
| 143 | CCCCCOc1ccc(C(=O)Nc2ccc3cc(CN4CCCC4)cnc3c2C)c(F)c1 |
| 223 to 230 | CS(=O)(=O)c1ccc(-n2cnc(Cl)c2-c2cnc(Cl)c(Cl)c2)cc1 |
| 148 to 149 | CCCCC(=O)N(Cc1ccc(-c2ccccc2-c2nc(=O)s[nH]2)cc1)c1sccc1C(=O)O |
| 105 to 109 | Cn1cc(-c2ccc(C(=O)N3Cc4cccn4Cc4ccccc43)c(Cl)c2)cn1 |
| 128 to 130 | COc1ccc(OC)c(-c2cc(OC)cc3c2OC(CN)C3)c1 (stereo unspecified) |
| > 200 | CCCCc1nc2c(n1Cc1ccc(-c3ccccc3S(N)(=O)=O)cc1)C(=NO)CCS2 |
| 153 to 154 | CSc1ccc(-c2coc3ccc(-c4nnc(C)o4)cc23)c(Cl)c1 |
| 204 to 205 | CCc1nn(-c2ccc(F)cc2)c2cc(C(=O)O)ccc12 |
| 112 to 114 | CN(C)Cc1cc(Cc2ccccc2)c(O)c(Cc2ccccc2)c1 |
| 186 to 187 | CC(C)(O)C1Cc2cc3ccc(=O)oc3cc2O1 (stereo unspecified) |
| 88 to 90 | CC(CCCc1ccccc1)Oc1cc(O)c2c(c1)NCCC2=O (stereo unspecified) |
| 73 to 74 | CCOC(=O)C=Cc1ccc(CCc2nc(-c3ccccc3)oc2C)cc1 |

| melting point [°C] | Compound |
| --- | --- |
| 71 to 73 | O=CC1=Cc2cc(OCCCc3ccccc3)ccc2OC1 |
| 300 to 302 | O=c1ccc2cnc(Nc3ccccc3)nc2n1-c1ccccc1 |
| 201 to 205 | CNCc1ccc(C2CCN(c3c(F)c(N)c4c(=O)c(C(=O)O)cn(C5CC5)c4c3F)C2)cc1 (stereo unspecified) |
| 212 to 213 | CC(C)(C)c1cc(-c2c[nH]c(CNC(=O)OCc3ccccc3)n2)cc(C(C)(C)C)c1O |
| 230 | O=C(Nc1ccncc1)c1ccc(OC(F)F)c2oc3ccccc3c12 |
| 164 to 166 | O=C(c1ccc(-c2ccccc2)cc1)N1CCCCc2sccc21 |
| 102 to 104 | O=C(Nc1ccc(F)cc1)c1ccccc1F |
| 162 | COc1ccc2c(=O)cc(-c3ccc(F)cc3)oc2c1 |
| 109 to 111 | CCOC(=O)C(C(=O)Nc1cc(OC)c(OC)c(OC)c1)(c1ccccc1)c1ccccc1 |
| 90 | CCCCN(CCCC)CCCOc1ccc(S(=O)(=O)c2ccc3ccccc3c2)cc1 |
| 192 to 193 | CC(=O)N(C)Cc1ccc(NC(=O)/C=C/c2cnn(C)c2-c2ccc(F)cc2)cc1 |
| 87 to 90 | O=C(Nc1nc(OCc2ccc(F)cc2)ncc1F)c1snc(Cl)c1Cl |
| 131 to 133 | COc1ccc(C2=C(c3ccccc3)CCCc3cc(OC4CCCCO4)ccc32)cc1 (stereo unspecified) |
| > 250 | Oc1cc(O)n2nc(-c3ccc(F)cc3)c(-c3ccncc3)c2n1 |
| 185 | Cn1cnnc1C(O)(c1ccc(Cl)cc1)c1ccc2c(c1)c(-c1cccc(Cl)c1)cc(=O)n2Cc1ccc(C#N)cc1 (stereo unspecified) |
| 214 to 225 | CN1C(=O)C(c2cccc(-c3cncnc3)c2)(c2cc(C#N)n(C)c2)N=C1N (stereo unspecified) |
| 50 to 52 | C=CCOc1cccc(C(=O)c2ccccc2C(=O)OC)c1 |
| 225 to 229 | O=C(NC(=O)c1c(Cl)cccc1Cl)Nc1ccc(-c2ccc(Cl)cc2)nc1 |
| 150 to 153 | CNC(=O)N(O)Cc1ccc(OCc2ccccc2)cc1 |
| 84 to 85 | CCOCCOC(=O)c1nc2ccc(COc3cccc(OCc4ccc5ccccc5n4)c3)cc2o1 |
| 136 to 137 | O=c1oc(-c2cccc(Cl)c2)cc(O)c1SCc1ccccc1 |
